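All cell lines were grown in 96-well plates and treated with compound for 48 hours. Abbreviation: GI50, concentration required for 50% inhibition of growth. At the TGI there is no net growth.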
Assays:
Test in all cases: DTP human tumour cell line panel, 48 h
PC-3 prostate = system: PC-3 prostate
DU-145 prostate = system: DU-145 prostate
MDA-MB-231 breast = system: MDA-MB-231 breast
MCF7 breast = system: MCF7 breast
HS 578T breast = system: HS 578T breast
DMS 273 small cell lung = system: DMS 273 small cell lung
LXFL 529 NSCLC = system: LXFL 529 NSCLC
SNB-78 CNS = system: SNB-78 CNS
DMS 114 small cell lung = system: DMS 114 small cell lung

| SMILES | GI50 (PC-3 prostate) [µM] | TGI (PC-3 prostate) [µM] | GI50 (DU-145 prostate) [µM] | TGI (DU-145 prostate) [µM] | GI50 (MDA-MB-231 breast) [µM] | TGI (MDA-MB-231 breast) [µM] | GI50 (MCF7 breast) [µM] | TGI (MCF7 breast) [µM] | GI50 (HS 578T breast) [µM] | TGI (HS 578T breast) [µM] | TGI (DMS 273 small cell lung) [µM] | TGI (LXFL 529 NSCLC) [µM] | TGI (SNB-78 CNS) [µM] | TGI (DMS 114 small cell lung) [µM] |
| --- | --- | --- | --- | --- | --- | --- | --- | --- | --- | --- | --- | --- | --- | --- |
| ClCc1ccc(Cn2cnc3nc(Cl)nc(Cl)c32)cc1 | 2.9 | 7.98 | 0.444 | 1.12 | 0.444 | 0.926 | 0.663 | 2.36 | 19.2 | 44.8 | – | – | – | – |
| CCn1c(SC)nnc1-c1cc2c([nH]c3ccccc32)c(-c2cccc(O)c2)n1 | 2.83 | > 100 | 4.46 | 24.9 | 2.43 | 15.9 | 0.995 | 25.2 | 1.97 | 9.76 | – | – | – | – |
| COc1cc2c(cc1OCCCN1CCN(CCCn3c4ccccc4c4ccccc43)CC1)N=C[C@@H]1CCCN1C2=O | 0.0585 | 0.523 | 0.0335 | 1.14 | 0.217 | 1.02 | 0.0285 | 0.461 | – | 0.254 | – | – | – | – |
| N#Cc1c(N/N=C/c2c(Cl)cccc2Cl)nc(N)nc1N1CCCC1 | 2.89 | 40 | 5.23 | > 100 | 3.25 | 42.2 | 5.8 | > 100 | 3.05 | > 100 | – | – | – | – |
| O=C1COc2c(CCNCCN(C(=O)CCNCCc3ccc(Cl)c(Cl)c3)C3CCCCC3)ccc(O)c2N1 | 16 | 30.3 | 17.7 | 32 | 10.5 | 25.6 | 11.9 | 27.8 | 15.4 | 34.9 | – | – | – | – |
| Cc1ccc(S(=O)(=O)NCc2cccc([N+](=O)[O-])c2)cc1 | – | > 100 | – | > 100 | – | > 100 | – | > 100 | – | > 100 | – | – | – | – |
| COC(=O)C(NC(=O)c1ccccc1)c1ccc(OC)c(I)c1 (centres undefined) | 40.1 | > 100 | > 100 | > 100 | 27.2 | > 100 | 39.5 | > 100 | 77.1 | > 100 | – | – | – | – |
| O=C(NCc1cccnc1)c1ccc([N+](=O)[O-])o1 | 2.52 | > 19.1 | 1.11 | 4.11 | 16.1 | > 32.5 | 0.973 | 5.21 | 2.52 | > 9.5 | – | – | – | – |
| c1csc(-c2[nH]nc3c2CCc2ccccc2-3)c1 | 12.5 | 37.5 | 23.4 | 71.3 | 0.966 | 19.5 | 0.23 | 11.8 | 14.5 | 55.4 | – | – | – | – |
| O=C1C(=O)c2c(ccc3ccccc23)-c2ccccc21 | 1.81 | 6.25 | 1.4 | 2.73 | 1.63 | 8.08 | 1.53 | 3.48 | 2.05 | 6 | – | – | – | – |
| O=C(COC(=O)[C@H](C[Se][Se]C[C@H](NC(=O)c1ccc(Br)cc1F)C(=O)OCC(=O)c1ccc(F)cc1)NC(=O)c1ccc(Br)cc1F)c1ccc(F)cc1 | 0.375 | 1.38 | 0.385 | 1.08 | 1.65 | 4.03 | 0.984 | 3.06 | 0.298 | 1.31 | – | – | – | – |
| O=C(CO[N+](=O)[O-])OCC(=O)c1ccccc1 | – | – | – | – | – | – | – | – | – | – | > 100 | > 100 | – | – |
| Clc1ccc(N=CNc2ccc(-c3nc4ccccc4[nH]3)cc2)cc1 | > 100 | > 100 | 59.2 | > 100 | > 100 | > 100 | – | – | 91.9 | > 100 | – | – | – | – |
| Cc1cc2c(SCc3ccccc3Cl)nc(N)nc2nc1C | – | > 100 | – | > 100 | – | > 100 | – | > 100 | – | > 100 | – | – | – | – |
| Cc1cc(C2(c3cc(C)c(O)c4ncccc34)OC(=O)c3ccccc32)c2cccnc2c1O | 0.0957 | > 100 | 0.242 | > 100 | 0.0215 | 22.7 | – | > 100 | – | – | – | – | – | – |
| O=C(Nc1cccc(C(F)(F)F)c1)Nc1ccc(OCc2nnc(-c3ccccc3)o2)c(F)c1 | 2.01 | 13.7 | 6.06 | 28.3 | 3.3 | 22.3 | 4.21 | 24.4 | 2.5 | 14.7 | – | – | – | – |
| Cn1c(=O)c(-c2c(Cl)cccc2Cl)cc2cnc(Nc3ccc(N4CCOCC4)cc3)nc21 | 0.474 | > 100 | – | – | < 0.0169 | – | 1.49 | > 100 | – | – | – | – | – | – |
| COC(=O)N/N=C(\c1nc2ccc(Cl)cc2[nH]c1=O)C(O)c1ccc([N+](=O)[O-])cc1 (centres undefined) | – | – | – | – | – | – | – | – | – | – | > 100 | > 100 | > 100 | > 100 |
| O=C1OC(c2ccccc2)=N/C1=C\c1ccc(N(CCCl)CCCl)cc1 | – | > 100 | – | > 100 | – | > 100 | – | > 100 | – | > 100 | – | – | – | – |
| O=C(O)C12C3C4C1C1C2C3C41I (centres undefined) | – | – | – | – | – | – | – | – | – | – | > 100 | > 100 | > 100 | > 100 |
| Cc1c(-c2ccc(N3CCc4cccc(C(=O)Nc5nc6ccccc6s5)c4C3)nc2C(=O)O)cnn1CC12CC3CC(CC(C3)C1)C2 | 1.42 | 6.15 | 15.2 | 29.1 | – | – | 10.8 | 29.4 | 3.77 | 38.4 | – | – | – | – |
| Cn1c(=O)c(Oc2ccc(F)cc2F)cc2cnc(NC3CCC(O)CC3)nc21 (centres undefined) | > 25 | > 25 | > 25 | > 25 | > 25 | > 25 | > 25 | > 25 | > 25 | > 25 | – | – | – | – |
| COc1cc(COC(=O)NC(Cc2cccs2)C(=O)O)c([N+](=O)[O-])cc1OC (centres undefined) | – | > 100 | – | > 100 | – | – | – | > 100 | – | > 100 | – | – | – | – |
| CCC(=C(c1ccc(OCCN(CC)CC)cc1)c1ccc(OCCN(CC)CC)cc1)c1ccc(Cl)cc1 | 0.581 | 1.24 | 0.619 | 1.19 | 0.573 | 1.09 | 0.347 | 0.861 | 0.668 | 1.57 | – | – | – | – |
| CN1C/C(=C\c2ccco2)c2nc(N)nc(-c3ccco3)c2C1 | – | – | – | – | – | – | – | – | – | – | > 100 | > 100 | – | > 100 |

— PubChem BioAssay (NCI)
